Columns and labels:
[1] = tested on: L. monocytogenes; test: L. monocytogenes kill in cold salt/acid/surfactant solutions; assay type: cell-based
Procedure: To study chilling brine application of the current embodiment, tests were run on 17% by weight solutions of formulas consisting of between 0.3% and 6.0% citric acid, between 50 and 500 ppm SLS, and between 94% and 99.7% sodium chloride. Test solutions were cooled to −7° C. and inoculated with several strains of L. monocytogenes.
An experiment was run to determine if solutions containing sodium chloride, sodium lauryl sulfate, and various acids would kill L. monocytogenes at cold temperatures. […] A 1.0 ml aliquot of this suspension was added to 100 ml of cold (−7° C.+2° C.) test solution and mixed well, providing an initial inoculum of 10^3 CFU/ml. The test solutions were incubated at −7° C.+/−2° C. for the duration of the experiment. At intervals of 0, 4, and 24 hours the L. monocytogenes populations in the test solutions were determined on Modified Oxford agar (MOX). MOX plates were incubated at 35° C.+/−2° C. for approximately 48 hours. Colonies were then counted and compared to the initial inoculum counts.
Each test solution was a 17% by weight solution of the listed formula prepared in soft water.
In another experiment, 17% by weight solutions of formulas containing various levels of sodium chloride, citric acid, and sodium lauryl sulfate were tested for effectiveness in killing L. monocytogenes at cold temperatures. The same test procedure was used as described above, except test solutions were plated on MOX with a Thin Agar Overlay of TSA (to aid in the recovery of injured cells).
In another experiment, two sets of solutions were tested. The first set (samples 1-12 in Table 10 below) was prepared in hard tap water and contained about 17.0% by mass of the formulation. These samples were inoculated with 10^3 CFU/ml L. monocytogenes by the same procedure as described above. A second set of samples was prepared from brine taken from a ready-to-eat meat processing operation. The recirculated brine had been used to chill packaged meat for one week. After a week of use the brine typically contains various types of aerobic psychotropic and mesophilic bacteria. This experiment was done in order to determine if the additives would kill the microorganisms naturally occurring in actual process brine from a plant. Since the spent chill brine samples already contained NaCl citric acid and/or SLS was added to provide an effective concentration of additive. One set of these samples (samples 13-17) were inoculated with 10^3 L. monocytogenes and the other set (samples 18-22) contained only the naturally occurring organisms in the spent chill brine. […] Other antimicrobials, such as quaternary ammonium compounds can lose significant activity in hard water, often necessitating further additives, such as EDTA as a chelating agent, to maintain antimicrobial activity.
Another set of experiments was done in order to determine the effectiveness of different acids and different types of surfactants in the antimicrobial salt formulations. In one experiment, test solutions containing ˜17% by weight of formulas containing various levels of sodium chloride, 100 ppm sodium lauryl sulfate, and various levels of different acids were tested for effectiveness in killing L. monocytogenes at cold temperatures. The same test procedure was used as described above (test solutions were plated on MOX TAL (Modified Oxford Medium with a Thin Agar Layer) with TSA). The controls were a solution of pure NaCl, a solution of a blend of 100 ppm SLS in NaCl, and a solution of a blend of 0.5% citric acid, 100 ppm SLS, and 99.5% NaCl.

[2] = tested on: L. monocytogenes; test: L. monocytogenes challenge in hot dog plant chill brine at −20° C.; assay type: cell-based
Procedure: 1. Inoculate a separate tube containing approximately 10 ml of Brain Heart infusion (BHI) broth with the following L. monocytogenes strains: H2446 (CDC Global Standard), Scott A (serotype 4b), 12243 (serotype 1/2a), and two strains isolated from the environment of a cooked meat and poultry facility, designated WP1, and WP4. Incubate the tubes at least 5 days at 7-10° C.+/−2° C. 2. Assume the growth to be 10^9 cfu/ml. Serially dilute each culture in cold (˜7° C.). Butterfield's Phosphate Buffered Water (PBW) to 10^8 cfu/ml (1:10). Since five cultures of L. monocytogenes are being used as a cocktail, begin the dilution series using […] of each culture added to 99 ml of PBW. 3. Plate (−6, −7, −8) the diluted culture to get the starting count of the inoculum on Modified Oxford medium (MOX) using a thin agar overlay (TAL) technique (overlay with Trypticase Soy Agar [TSA]) to revive injured cells. 4. Add 1 ml of the diluted cocktail to 100 ml of cold test solution. 5. Mix the solutions well. 6. Determine the L. monocytogenes population at time 0 and 4 hours. Plate −1 (0.1 ml on 1 plate), −2, −3, and −4 dilutions using spread plates on MOX TAL with TSA. 7. Incubate the test solutions at test temperature for the duration of the experiment. 8. Incubate the MOX TAL with TSA plates at 20° C.+/−2° C. for 72+/−3 hours. Count representative colonies, which are black, and multiply by the dilution factor. […]

[3] = pH and water activity of test solutions; assay type: physicochemical
[4] = 17% by weight solution in soft water, −7° C., MOX
[5] = 17% by weight solution, −6.7° C., MOX with thin agar overlay
[6] = 17% by weight solution of the formula in soft water, Table 8

| Compound | L. monocytogenes, Time 4 Hours ([1]; 4 hours, 17% by weight of formula of 99.7% sodium chloride, 0.3% citric acid, 500 ppm of listed surfactant, cold) | L. monocytogenes, Time 0 ([1]; 17% by weight of formula of 99.7% sodium chloride, 0.3% citric acid, 500 ppm of listed surfactant, cold) | effectiveness at lower concentration ([2]; 12.5 ppm in the hot dog plant brine) | kill of L. monocytogenes inoculum ([2]; 50 ppm, within 4 hours, −20° C., hot dog plant brine) | L. monocytogenes, 24 ([1]; 24, about 17.0% of formulation in hard tap water) | L. monocytogenes, 2 hr ([1]; 2 hr, about 17.0% of formulation in hard tap water) | L. monocytogenes, 4 hr [1, 4] | L. monocytogenes, 4 hr [1, 5] | L. monocytogenes, 24 hr [1, 4] | L. monocytogenes, 24 hr [1, 5] | L. monocytogenes, Time 0 ([1]; 17% by weight solution of the formula in soft water, −7° C., MOX) | L. monocytogenes, Time 0 ([1]; 17% by weight solution, −6.7° C., MOX with thin agar overlay of TSA) | L. monocytogenes, Time 0 ([1]; about 17.0% of formulation in hard tap water (27 gpg), inoculated 10^3 CFU/ml) | Water Activity [3, 6] | pH [3, 6] | pH ([3]; 17% by weight solution of the formula, Table 9) |
| --- | --- | --- | --- | --- | --- | --- | --- | --- | --- | --- | --- | --- | --- | --- | --- | --- |
| alcohol ethoxylate | 1 CFU/ml | 1080 CFU/ml | as effective as 50 ppm | ~5 log | – | – | – | – | – | – | – | – | – | – | – | – |
| [Cl-].[Na+] [100% NaCl, sodium chloride, reference compound] | – | – | – | – | 1100 cfu/ml | 1100 cfu/ml | 1250 CFU/ml | ~6250 CFU/ml | 1170 CFU/ml | 2290 CFU/ml | 1550 CFU/ml | ~7000 CFU/ml | 760 cfu/ml | 0.88 | 7.88 | 7.66 |

From patent publication US20110212235A1, “ANTIMICROBIAL SALT SOLUTIONS FOR CHEESE PROCESSING APPLICATIONS” (priority 2006, published 2011)
